Measurements taken from PMC11148080, “Ru(II)-based complexes containing 2-thiouracil derivatives suppress liver cancer stem cells by targeting NF-κB and Akt/mTOR signaling” (Cell Death Discovery, 2024).

Columns and labels:
HepG2 cells [1] = assay: Colony-forming assay; assay type: cell-based, human; conditions: concentration- and time-dependent; 24, 48, 72 h treatment
Experimental: A total of 500 cells were plated in 6-well plates with 4 mL of complete medium and treated with the drugs for 24, 48, or 72 h to determine clonogenic potential. The medium was subsequently replaced with fresh drug-free medium, and the plates were cultivated for 14 days. After that, the cells were fixed in methanol and stained with 0.5% crystal violet. Using an optical microscope (Nikon, TS100), the number of colonies with >50 cells was counted.

HepG2 cells [2] = assay: EMT markers vimentin and E-cadherin by flow cytometry; assay type: cell-based, human; conditions: HepG2, 24 h; 6 μM complex 2
Experimental: To stain the cell surface proteins, the cells were washed with an incubation buffer (0.5% bovine serum albumin in PBS), and then antibodies were added and incubated for 1 h at room temperature. The cells were then washed with PBS, and the fluorescence signal was measured by flow cytometry. CD133 and CD44 were quantified in YO-PRO-1 (Sigma‒Aldrich Co.) negative cells.
To stain intracellular proteins, the cells were harvested and resuspended in 0.5-1 mL of 4% formaldehyde for 10 min at 37 °C. The tube was then placed on ice for 1 min, after which the cells were prechilled and permeabilized using a sequence of 100% (30 min) to 90% (30 min) methanol with gentle mixing. After washing with incubation buffer (0.5% bovine serum albumin in PBS), primary antibodies were added and incubated for 1 h at room temperature. Finally, the cells were washed with PBS, and flow cytometry was used to measure cell fluorescence.

In the case of `F[P-](F)(F)(F)(F)F.O=c1cc[nH]c([S][Ru+])n1.c1ccc(-c2ccccn2)nc1.c1ccc(P(c2ccccc2)c2ccccc2)cc1.c1ccc(P(c2ccccc2)c2ccccc2)cc1` [Complex 1, trans-[Ru(2TU)(PPh3)2(bipy)]PF6], the “clonogenic viability of HepG2 cells” value (HepG2 cells [1]) was “significantly decreased”.

For `Cc1cc(=O)nc([S][Ru+])[nH]1.F[P-](F)(F)(F)(F)F.c1ccc(-c2ccccn2)nc1.c1ccc(P(c2ccccc2)c2ccccc2)cc1.c1ccc(P(c2ccccc2)c2ccccc2)cc1` [Complex 2, trans-[Ru(6m2TU)(PPh3)2(bipy)]PF6], the “clonogenic viability of HepG2 cells” value (HepG2 cells [1]) was “significantly decreased”, the E-cadherin expression (HepG2 cells [2]) was “increased” and the vimentin expression (HepG2 cells [2]) was “reduced”.
